Patent US20250032489A1, “MIXED LINEAGE KINASE INHIBITORS AND METHODS OF USE” (The U.S.A., as represented by the Secretary, Department of …, priority 2022, published 2025)
Where two headings read alike, the source gives them in different places. Each block holds one molecule with its values, some of them ahead of it. Where a SMILES comes first, the peptide text is derived from it. The star is where a group is joined. Cbz = O=C(OCc1ccccc1)*

Key:
[1] = PAMPA (parallel artificial membrane permeability assay); format: in vitro ADME
Protocol: (§1) Substituents were varied to improve binding affinity to LZK and selectivity over DLK. KD values were measured by Eurofins DiscoveRx using the Kd-Elect system. Parallel artificial membrane permeability assay (PAMPA) values were measured by Cyprotex.

c-MYC = experiment: Western blot of c-MYC abundance; format: cell-based; conditions: CAL33 and BICR56 cells depleted of LZK for 48 hours, 10 μM for six hours
Protocol: Generally, cells were plated in six-well or 35-mm plates for 24 hours, after which doxycycline was added or treatment with specific inhibitor was administered using 5% FBS media for 48 hours. After appropriate treatment time, cells were washed with ice-cold phosphate-buffered saline without Ca and Mg (Quality Biological) and then lysed on ice with RIPA buffer ([…], 1.0% IGEPAL® CA-630, 0.5% sodium deoxycholate, 0.1% SDS, 50 mM Tris, pH 8.0) (Sigma-Aldrich) supplemented with protease inhibitor tablet (Sigma-Aldrich) and phosphatase inhibitor cocktails 2 and 3 (Sigma-Aldrich) followed by centrifugation at 15,000 rpm for 10 minutes at 4° C. Protein concentrations were determined from the cell lysate by using 660 nm Protein Assay Reagent (Pierce). Cell extracts were denatured, subjected to SDS-PAGE, transferred to PVDF membranes (Bio-Rad) and blocked for 2 hours using 5% bovine serum albumin (BSA) in phosphate-buffered saline and 0.1% Tween® 20 (PBS-T). The membranes were incubated with the specific antibodies overnight in 5% BSA/PBST at 4° C. followed by a 1 hour incubation with the appropriate horseradish peroxidase-conjugated secondary antibodies and signal was detected by chemiluminescence (Thermo Fisher).

LZK [2] = biological target: T1, LZK (Homo sapiens (Human), UniProt O43283); experiment: KD determination, Eurofins DiscoveRx Kd-Elect; format: binding
Protocol: as §1
(§2) KD values were calculated with a standard dose-response curve using the Hill equation: […]
(§3) The Hill Slope was set to −1. Curves were fitted using a non-linear least square fit with the Levenberg-Marquardt algorithm.

LZK [3] = biological target: T1, LZK; experiment: Phospho-JNK ELISA in doxycycline-induced CAL33 cells expressing LZK; format: cell-based; conditions: for Phospho-JNK levels: 1 μM LZK inhibitor, 1 hour, compared to GNE-3511 control
Source text: The ViraPower HiPerform T-REx Gateway Expression System (Invitrogen) was used to generate cells with tetracycline-inducible expression of LZK. In brief, wild-type (WT) or drug-resistant mutant (Q240S) LZK (cloned into pLenti6.3/TO/V5-DEST vector) and pLenti3.3/TR (for tetracycline repressor expression) were transfected into 293FT cells using Lipofectamine 2000 to generate lentiviral stock. Cell lines were generated by antibiotic selection (blasticidin [Gibco] and geneticin [Gibco]). Doxycycline (Sigma-Aldrich) was used at 1 μg/mL to induce LZK expression.
A PathScan® Phospho-SAPK/JNK (Thr183/Tyr185) Sandwich ELISA Assay (Cell Signaling Technology) was used for ELISA assays following the manufacturer's protocol. In general, 500,000 cells were plated and treated with doxycycline the following day where appropriate and incubated at 37° C. for 48 hours. Cells were treated with the drug compound or control in 5% FBS media for 1 hour. After appropriate treatment time, cells were lysed on ice with 1× Cell Lysis Buffer (Cell Signaling Technology) supplemented with phosphatase and protease inhibitors (Sigma). Each diluted cell lysate was added to Phospho-SAPK/JNK (Thr183/Tyr185)Rabbit mAb Coated microwells in triplicate and incubated overnight at 4° C. Samples were treated with the following antibodies and incubated at 37° C. for 1 hour and 30 minutes, respectively: Detection Antibody and HRP-Linked secondary antibody. Samples were washed between treatments using 1× Wash Buffer according to the manufacturer's protocol. TMB substrate was added to each well and incubated at 37° C. for 10 minutes. Following this, STOPsolution was added to each well and absorbance was measured at 450 nm using iMark™ Microplate Absorbance Reader (Bio-Rad). Graphs display relative phospho-JNK levels.

DLK = DLK (Homo sapiens (Human), UniProt Q12852); experiment: KD determination, Eurofins DiscoveRx Kd-Elect; format: binding
Protocol: as §1, §2, §3

OVCAR5 cells = experiment: Colony formation assay; format: cell-based
Protocol: (§4) Crystal violet assays were used to assess relative cell growth and survival after treatment with specific compounds. In general, cells were plated in triplicate in 12-well plates for 24 hours before drug treatments were added using 10% FBS media. The plates were incubated for 14 days, with the media and drug being replaced every 48 hours. The cells were then washed with phosphate-buffered saline and fixed in ice-cold methanol before being stained with 0.5% crystal violet (Sigma-Aldrich) in 25% methanol. Images were taken using a ChemiDoc MP Imaging System (Bio Rad), and for quantification, the crystal violet stain was dissolved in 33% acetic acid, incubated for 20 minutes with shaking, and read at 595 nm using iMark™ Microplate Absorbance Reader (Bio-Rad). Graphs display percent colony formation relative to the DMSO-treated control sample.

KYSE70 cells = experiment: Colony formation assay; format: cell-based
Protocol: as §4

Sequence of DLK (Q12852 whole entry): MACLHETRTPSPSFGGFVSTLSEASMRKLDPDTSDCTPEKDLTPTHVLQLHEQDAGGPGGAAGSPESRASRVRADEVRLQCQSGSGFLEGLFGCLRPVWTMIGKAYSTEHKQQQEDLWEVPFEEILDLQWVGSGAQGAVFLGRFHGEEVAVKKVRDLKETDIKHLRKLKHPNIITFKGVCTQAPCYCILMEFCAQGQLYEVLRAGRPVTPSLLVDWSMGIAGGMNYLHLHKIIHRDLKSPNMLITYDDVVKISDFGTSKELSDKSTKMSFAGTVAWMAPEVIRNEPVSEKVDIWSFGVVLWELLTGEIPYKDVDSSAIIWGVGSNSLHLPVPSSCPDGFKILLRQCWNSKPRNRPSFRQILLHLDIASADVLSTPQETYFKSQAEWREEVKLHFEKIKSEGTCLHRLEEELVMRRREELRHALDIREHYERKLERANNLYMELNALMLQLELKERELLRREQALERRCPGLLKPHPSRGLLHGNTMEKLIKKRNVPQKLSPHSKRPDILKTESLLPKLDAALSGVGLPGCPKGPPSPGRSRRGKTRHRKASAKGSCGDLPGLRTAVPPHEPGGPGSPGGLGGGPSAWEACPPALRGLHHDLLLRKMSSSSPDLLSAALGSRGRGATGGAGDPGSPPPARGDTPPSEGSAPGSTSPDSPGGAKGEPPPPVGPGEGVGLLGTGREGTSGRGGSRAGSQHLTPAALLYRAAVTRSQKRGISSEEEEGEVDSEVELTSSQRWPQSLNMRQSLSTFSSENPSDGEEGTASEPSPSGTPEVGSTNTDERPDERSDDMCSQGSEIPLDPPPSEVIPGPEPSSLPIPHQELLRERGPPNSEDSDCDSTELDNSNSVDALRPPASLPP
T1 sequence (O43283 whole entry): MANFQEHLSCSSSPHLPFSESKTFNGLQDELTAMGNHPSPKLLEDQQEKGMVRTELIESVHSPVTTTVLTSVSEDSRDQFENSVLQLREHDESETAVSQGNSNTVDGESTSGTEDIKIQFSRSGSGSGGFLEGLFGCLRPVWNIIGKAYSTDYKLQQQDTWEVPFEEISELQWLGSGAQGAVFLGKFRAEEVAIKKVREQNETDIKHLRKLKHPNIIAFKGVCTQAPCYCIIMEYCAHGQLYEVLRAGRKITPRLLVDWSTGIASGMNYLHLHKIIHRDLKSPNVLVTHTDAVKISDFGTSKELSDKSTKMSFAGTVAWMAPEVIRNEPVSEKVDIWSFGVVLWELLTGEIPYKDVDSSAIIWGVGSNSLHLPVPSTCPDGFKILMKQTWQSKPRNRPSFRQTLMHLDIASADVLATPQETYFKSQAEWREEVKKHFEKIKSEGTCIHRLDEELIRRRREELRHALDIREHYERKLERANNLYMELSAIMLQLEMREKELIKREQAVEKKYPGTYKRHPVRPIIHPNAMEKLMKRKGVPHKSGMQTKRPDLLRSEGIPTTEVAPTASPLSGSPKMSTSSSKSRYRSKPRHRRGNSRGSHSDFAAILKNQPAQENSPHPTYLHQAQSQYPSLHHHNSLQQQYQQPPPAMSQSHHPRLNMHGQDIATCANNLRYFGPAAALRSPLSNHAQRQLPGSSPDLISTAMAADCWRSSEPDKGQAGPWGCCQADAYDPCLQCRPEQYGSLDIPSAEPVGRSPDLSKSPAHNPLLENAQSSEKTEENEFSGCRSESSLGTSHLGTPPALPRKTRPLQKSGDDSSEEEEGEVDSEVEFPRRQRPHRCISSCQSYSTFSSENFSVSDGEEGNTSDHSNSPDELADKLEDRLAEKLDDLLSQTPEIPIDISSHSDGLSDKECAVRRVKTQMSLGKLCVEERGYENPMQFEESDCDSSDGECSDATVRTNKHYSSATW

Mean permeability ([1]; PAMPA): 0.5352 10^−6 cm/sec
SMILES: CC(=O)NC12CC(n3cc(-c4cnc(N)c(OC(F)(F)F)c4)nc3C(O)C(C)C)(C1)C2 (stereo not drawn) [DLK-IN-2, reference compound]

Mean permeability ([1]; PAMPA): 2.9021 10^−6 cm/sec
SMILES: CC(C)C(O)c1nc(-c2cnc(N)c(OC(F)(F)F)c2)cn1C12CC(N)(C1)C2 (stereo not drawn) [DLK-IN-3, reference compound]

SMILES: CC(C)C[C@@H](C=O)NC(=O)[C@H](CC(C)C)NC(=O)[C@H](CC(C)C)NC(=O)OCc1ccccc1 [MG132] (Cbz-Leu-Leu-Leu-aldehyde)
c-MYC levels in cells depleted of LZK (c-MYC): rescued decreases in the c-MYC levels

Kd (LZK [2]; read-out: Kd values): 0.094 µM
SMILES: CC(=O)NC12CC(n3cc(-c4cnc(N)c(C(F)(F)F)n4)nc3C(O)C(C)C)(C1)C2 (stereo not drawn) [compound 44]

Kd (LZK [2]; read-out: Kd values): 0.44 µM
SMILES: CC(=O)NC12CC(n3cc(-c4cnc(N)c(C#N)n4)nc3C(O)C(C)C)(C1)C2 (stereo not drawn) [compound 45]

Kd (LZK [2]; read-out: Kd values): > 10 µM
SMILES: CC(=O)NC12CC(n3cc(-c4cnc(N)cn4)nc3C(O)C(C)C)(C1)C2 (stereo not drawn) [compound 46]

SMILES: CC(=O)N1CCC(c2cc(Nc3cnccn3)nc(N3CCC(F)(F)C3)c2)CC1 [compound 100]
Inhibition of downstream JNK pathway activation (LZK [3]; ELISA assay): effective inhibitor | Mean permeability [1]: 16.9436 10^−6 cm/sec | PAMPA [1]: 16.94

SMILES: CC(=O)N1CCC(c2cc(Nc3ccn(C)n3)nc(N3CCC(F)(F)C3)c2)CC1 [compound 101]
Kd (DLK; in μM): > 10 µM | Kd (LZK [2]; in μM, read-out: LZK KD): > 10 µM

SMILES: CC(=O)N1CCC(c2cc(Nc3cc4[nH]ccc4cn3)nc(N3CCC(F)(F)C3)c2)CC1 [compound 104]
Kd (DLK; in μM): > 10 µM | Kd (LZK [2]; in μM, read-out: LZK KD): > 10 µM

SMILES: CC(=O)N1CCC(c2cc(Nc3cnc(C)cn3)nc(N3CCC(F)(F)C3)c2)CC1 [compound 107]
Phospho-JNK levels (LZK [3]): particularly effective

SMILES: CC(=O)N1CCC(c2cc(Nc3cncc(C)n3)nc(N3CCC(F)(F)C3)c2)CC1 [compound 108]
Kd (DLK; in μM): > 10 µM | Kd (LZK [2]; in μM, read-out: LZK KD): > 10 µM

SMILES: CC(=O)N1CCC(c2cc(Nc3nccnc3C)nc(N3CCC(F)(F)C3)c2)CC1 [compound 109]
Kd (DLK; in μM): > 10 µM | Kd (LZK [2]; in μM, read-out: LZK KD): > 10 µM

SMILES: CC(=O)N1CCC(c2cc(Nc3cnc4ccccc4n3)nc(N3CCC(F)(F)C3)c2)CC1 [compound 112]
Kd (DLK; in μM): > 10 µM | Kd (LZK [2]; in μM, read-out: LZK KD): > 10 µM

SMILES: CC(=O)N1CCC(c2cc(Nc3cn(C)cn3)nc(N3CCC(F)(F)C3)c2)CC1 [compound 114]
Kd (DLK): 1.2 µM | Kd (LZK [2]; read-out: LZK KD): 1.5 µM

SMILES: COc1cnc(Nc2cc(C3CCN(C(C)=O)CC3)cc(N3CCC(F)(F)C3)n2)cn1 [compound 115]
Kd (LZK [2]; read-out: LZK KD): 0.3 µM

SMILES: CC(=O)N1CCC(c2cc(Nc3ncccn3)nc(N3CCC(F)(F)C3)c2)CC1 [compound 117]
Kd (DLK; in μM): > 10 µM | Kd (LZK [2]; in μM, read-out: LZK KD): > 10 µM

SMILES: Cc1cnc(Nc2cc(C3CCN(C4CCC4)CC3)cc(N3CCC(F)(F)C3)n2)cn1 [compound 162]
dose-dependent inhibition of LZK (LZK [3]): dose-dependent inhibition

SMILES: Cc1cnc(Nc2cc(C3CCN(C4COC4)CC3)cc(N3CCC(F)(F)C3)n2)cn1 [compound 163]
Kd (LZK [2]; read-out: LZK KD): 0.02 µM

SMILES: Cc1cnc(Nc2cc(C3CCN(C4CCCC4)CC3)cc(N3CCC(F)(F)C3)n2)cn1 [compound 164]
sensitivity (colony formation) (OVCAR5 cells): sensitive | dose-dependent inhibition of LZK (LZK [3]): dose-dependent inhibition | Phospho-JNK levels (LZK [3]): more effective than GNE-3511 | IC50 (LZK [3]; read-out: inhibition of LZK IC50): ~100 nM

SMILES: CC(=O)N1CC(c2cc(Nc3cnc(C)cn3)nc(N3CCC(F)(F)C3)c2)C1 [compound 165]
increase of Kd for DLK over the parent (107) (DLK): 6 fold

SMILES: CC(=O)N1CCC(c2cc(Nc3cnc(C)cn3)nc(N(C)CC3CC3)c2)CC1 [compound 186]
Kd (LZK [2]; read-out: LZK KD): 0.09 µM

SMILES: CC(=O)N1CCC(c2cc(Nc3cnc(C)cn3)nc(N3CCOCC3)c2)CC1 [compound 191]
Kd (DLK): 0.17 µM | Kd (LZK [2]; read-out: LZK KD): 0.23 µM

SMILES: CC(=O)N1CCC(c2cc(Nc3cnc(C)cn3)nc(N3CCC(F)(F)CC3)c2)CC1 [compound 192]
Kd (DLK): 0.12 µM | Kd (LZK [2]; read-out: LZK KD): 0.065 µM

SMILES: CC(=O)N1CCC(c2cc(Nc3cnc(C)cn3)nc(N3CCC4(CC4)C3)c2)CC1 [compound 201]
Kd (DLK): 0.02 µM

SMILES: CC(=O)N1CCC(c2cc(Nc3cnc(C)cn3)nc(N3CC4CC(C4)C3)c2)CC1 [compound 204]
Kd (LZK [2]; read-out: LZK KD): 0.008 µM

SMILES: CC(=O)N1CCC(c2cc(Nc3cnc(C)cn3)nc(N3CC4CC(C3)C4O)c2)CC1 (stereo not drawn) [compound 205]
Kd (DLK): 0.1 µM

SMILES: CC(=O)N1CCC(c2cc(Nc3cnc(C)cn3)nc(N3CC4CCC4C3)c2)CC1 (stereo not drawn) [compound 207]
Kd (DLK): 0.18 µM | selectivity for LZK over DLK (LZK [2]; from KD values): 180 fold | Kd (LZK [2]; read-out: LZK KD): 0.00097 µM

SMILES: CC(=O)N1CCC(c2cc(Nc3cnc(C)cn3)nc(N3CCC4(CC3)CC4)c2)CC1 [compound 208]
Kd (DLK): 0.1 µM

Kd (DLK): 0.002 µM
SMILES: c1nc(C2CC2)cnc1Nc1cc(C2CCN(CC3CC3)CC2)cc(N2CC3CC3C2)n1 (stereo not drawn) [compound 216]
sensitivity (colony formation) (KYSE70 cells): exquisitely sensitive | sensitivity (colony formation) (OVCAR5 cells): exquisitely sensitive

Kd (DLK): 0.03 µM
SMILES: CC(=O)N1CC(c2cc(Nc3cnc(C4CC4)cn3)nc(N3CC4CC4C3)c2)C1 (stereo not drawn) [compound 218]

SMILES: c1nc(C2CC2)cnc1Nc1cc(C2CN(CC3CC3)C2)cc(N2CC3CC3C2)n1 (stereo not drawn) [compound 219]
sensitivity (colony formation) (KYSE70 cells): exquisitely sensitive | sensitivity (colony formation) (OVCAR5 cells): exquisitely sensitive

SMILES: c1nc(C2CC2)cnc1Nc1cc(C2CN(CC3CC3)C2)cc(N2CC3CCC3C2)n1 (stereo not drawn) [compound 228]
Kd (LZK [2]; read-out: LZK KD): 0.007 µM
